According to publication PMC6295861, “Privileged Structures and Polypharmacology within and between Protein Families” (ACS Medicinal Chemistry Letters, 2018):
Several values for one entry are separate records, joined by “and”; a condition that tells them apart may be missing. Equal values may be shown once.

Columns and labels:
B-Raf (WT) = B-Raf (WT) (Homo sapiens, UniProt P15056); test: B-Raf Z'-LYTE cascade kinase assay (SelectScreen); assay type: biochemical; settings: ATP 100 μM, points 1 and 2, listed as CCT363294-01
[1] = molecular target: cyclin-dependent kinase 9 (CDK9); parameters: method as in PMID 27746890; settings: cited from earlier work
HIPK2 = HIPK2 (Homo sapiens, UniProt Q9H2X6); test: Radio labeled filter binding kinase assay, HIPK2; assay type: biochemical
TAOK1 = molecular target: T1, TAOK1 (Homo sapiens, UniProt Q7L7X3); test: Radio labeled filter binding kinase assay, TAOK1; assay type: biochemical; settings: mean of duplicates
T1 sequence (Q7L7X3 1-1001): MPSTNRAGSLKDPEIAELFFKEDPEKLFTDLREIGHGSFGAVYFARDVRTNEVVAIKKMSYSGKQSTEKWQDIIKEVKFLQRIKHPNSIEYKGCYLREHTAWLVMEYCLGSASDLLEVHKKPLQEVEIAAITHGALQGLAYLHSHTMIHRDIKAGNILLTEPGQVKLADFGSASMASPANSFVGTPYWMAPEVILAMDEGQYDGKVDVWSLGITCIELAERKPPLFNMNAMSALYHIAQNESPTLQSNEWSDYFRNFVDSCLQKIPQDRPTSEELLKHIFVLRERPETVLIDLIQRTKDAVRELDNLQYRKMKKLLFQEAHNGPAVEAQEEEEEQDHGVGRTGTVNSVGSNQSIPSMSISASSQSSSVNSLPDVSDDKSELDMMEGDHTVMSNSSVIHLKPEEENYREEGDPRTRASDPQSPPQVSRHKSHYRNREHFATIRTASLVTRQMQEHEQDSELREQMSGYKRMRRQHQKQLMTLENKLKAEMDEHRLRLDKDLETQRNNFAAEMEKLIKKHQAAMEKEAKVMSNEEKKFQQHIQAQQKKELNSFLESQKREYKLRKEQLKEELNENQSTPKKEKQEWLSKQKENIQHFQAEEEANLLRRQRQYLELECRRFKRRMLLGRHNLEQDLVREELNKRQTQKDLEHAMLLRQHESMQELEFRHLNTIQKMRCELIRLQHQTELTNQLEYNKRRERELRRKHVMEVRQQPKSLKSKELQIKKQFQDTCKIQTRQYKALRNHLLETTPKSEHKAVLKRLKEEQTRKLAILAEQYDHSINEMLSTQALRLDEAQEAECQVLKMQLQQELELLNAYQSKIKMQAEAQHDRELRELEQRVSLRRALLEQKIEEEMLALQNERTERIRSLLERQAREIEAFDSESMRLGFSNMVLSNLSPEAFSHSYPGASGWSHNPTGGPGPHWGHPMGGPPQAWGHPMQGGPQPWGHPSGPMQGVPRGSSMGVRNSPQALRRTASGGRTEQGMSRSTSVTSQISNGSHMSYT

B-Raf (WT), sequence (P15056 whole entry): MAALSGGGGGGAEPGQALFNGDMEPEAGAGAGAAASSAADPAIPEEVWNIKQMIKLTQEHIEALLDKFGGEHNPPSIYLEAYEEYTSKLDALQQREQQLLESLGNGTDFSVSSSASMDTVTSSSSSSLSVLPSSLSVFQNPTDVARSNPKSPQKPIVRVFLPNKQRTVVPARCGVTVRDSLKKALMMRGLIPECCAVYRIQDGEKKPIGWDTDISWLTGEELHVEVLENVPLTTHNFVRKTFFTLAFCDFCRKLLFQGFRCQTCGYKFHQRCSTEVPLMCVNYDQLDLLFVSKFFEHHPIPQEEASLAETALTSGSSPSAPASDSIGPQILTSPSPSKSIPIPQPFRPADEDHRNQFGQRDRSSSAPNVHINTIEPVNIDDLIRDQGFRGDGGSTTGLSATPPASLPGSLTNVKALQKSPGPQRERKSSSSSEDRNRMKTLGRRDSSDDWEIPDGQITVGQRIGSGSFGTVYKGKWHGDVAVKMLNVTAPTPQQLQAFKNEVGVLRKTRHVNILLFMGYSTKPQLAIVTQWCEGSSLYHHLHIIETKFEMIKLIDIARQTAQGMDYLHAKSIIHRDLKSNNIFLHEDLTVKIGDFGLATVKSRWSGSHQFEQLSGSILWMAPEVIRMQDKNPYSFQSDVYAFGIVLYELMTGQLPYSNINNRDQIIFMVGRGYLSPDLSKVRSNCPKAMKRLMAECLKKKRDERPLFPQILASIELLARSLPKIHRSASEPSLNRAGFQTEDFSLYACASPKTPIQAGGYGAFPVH
HIPK2, sequence (Q9H2X6 whole entry): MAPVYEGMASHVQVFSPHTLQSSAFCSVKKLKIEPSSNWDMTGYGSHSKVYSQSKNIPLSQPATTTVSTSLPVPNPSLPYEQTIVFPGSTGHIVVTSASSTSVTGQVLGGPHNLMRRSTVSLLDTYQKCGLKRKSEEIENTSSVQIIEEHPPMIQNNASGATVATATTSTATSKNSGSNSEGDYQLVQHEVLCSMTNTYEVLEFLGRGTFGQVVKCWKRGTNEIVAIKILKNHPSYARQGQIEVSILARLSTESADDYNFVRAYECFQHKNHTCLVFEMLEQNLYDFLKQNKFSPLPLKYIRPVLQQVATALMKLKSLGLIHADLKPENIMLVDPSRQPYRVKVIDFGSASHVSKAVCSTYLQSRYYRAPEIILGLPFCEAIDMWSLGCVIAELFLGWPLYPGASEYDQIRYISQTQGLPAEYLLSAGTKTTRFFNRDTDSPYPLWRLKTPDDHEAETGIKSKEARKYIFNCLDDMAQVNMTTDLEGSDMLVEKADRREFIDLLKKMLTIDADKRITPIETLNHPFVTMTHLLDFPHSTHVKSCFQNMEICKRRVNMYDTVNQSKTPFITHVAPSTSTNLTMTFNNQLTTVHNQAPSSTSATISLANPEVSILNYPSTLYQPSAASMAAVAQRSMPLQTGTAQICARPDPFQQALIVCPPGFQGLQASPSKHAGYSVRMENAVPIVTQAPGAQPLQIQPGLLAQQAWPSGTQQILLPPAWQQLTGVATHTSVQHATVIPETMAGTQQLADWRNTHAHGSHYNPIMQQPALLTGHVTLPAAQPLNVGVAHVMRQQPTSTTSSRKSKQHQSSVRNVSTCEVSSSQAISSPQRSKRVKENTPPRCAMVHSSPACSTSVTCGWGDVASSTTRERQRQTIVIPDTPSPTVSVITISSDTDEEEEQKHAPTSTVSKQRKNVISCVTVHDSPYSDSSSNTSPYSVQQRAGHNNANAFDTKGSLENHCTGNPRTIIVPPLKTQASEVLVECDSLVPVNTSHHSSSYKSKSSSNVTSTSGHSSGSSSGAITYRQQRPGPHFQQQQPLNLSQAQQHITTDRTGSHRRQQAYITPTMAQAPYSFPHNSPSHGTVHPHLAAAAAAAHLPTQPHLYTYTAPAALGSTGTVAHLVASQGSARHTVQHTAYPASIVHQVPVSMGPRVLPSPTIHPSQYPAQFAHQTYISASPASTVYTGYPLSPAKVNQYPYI

## CC(C)(C)N1CCN(Cc2ccc3cc(C(=O)Nc4cc(NC(=O)c5ccc6c(c5)OCCO6)ccc4Cl)ccc3n2)CC1 [Compd 8, 2-((4-(tert-butyl)piperazin-1-yl)methyl)-N-(2-chloro-5-(2,3-dihydrobenzo[b][1,4]dioxine-6-carboxamido)phenyl)quinoline-6-carboxamide]
B-Raf (WT); 1.52 nM compound
  % Inhibition BRAF: -10% and -14%
B-Raf (WT); 13.7 nM compound
  % Inhibition BRAF: -17% and -16%
B-Raf (WT); 41.2 nM compound
  % Inhibition BRAF: -36% and -33%
B-Raf (WT); 123 nM compound
  % Inhibition BRAF: -22% and -28%
B-Raf (WT); 1110 nM compound
  % Inhibition BRAF: -4% and -8%
B-Raf (WT); 3330 nM compound
  % Inhibition BRAF: 6% and -3%

## c1cnc2ncn(-c3cc(Nc4ccc(OCCN5CCCCC5)cn4)ncn3)c2c1 [Compd 1]
[1]
  IC50: ≤ 0.003 µM
HIPK2; 0.0003 µM compound, duplicates
  activity at 0.0003 µM: 99%
HIPK2; 0.0003 µM compound, duplicates, listed as CCT250006, 0.0003 µM
  HIPK2 % activity: 95%
HIPK2; 0.001 µM compound, duplicates
  activity at 0.001 µM: 94%
HIPK2; 0.001 µM compound, duplicates, listed as CCT250006, 0.001 µM
  HIPK2 % activity: 107%
HIPK2; 0.003 µM compound, duplicates, listed as CCT250006, 0.003 µM
  HIPK2 % activity: 95% and 121%
HIPK2; 0.01 µM compound, duplicates
  activity at 0.01 µM: 86%
HIPK2; 0.01 µM compound, duplicates, listed as CCT250006, 0.01 µM
  HIPK2 % activity: 88%
HIPK2; 0.03 µM compound, duplicates
  activity at 0.03 µM: 43%
HIPK2; 0.03 µM compound, duplicates, listed as CCT250006, 0.03 µM
  HIPK2 % activity: 39%
HIPK2; 0.1 µM compound, duplicates
  activity at 0.1 µM: 26%
HIPK2; 0.1 µM compound, duplicates, listed as CCT250006, 0.1 µM
  HIPK2 % activity: 35%
HIPK2; 0.3 µM compound, duplicates
  activity at 0.3 µM: 9%
HIPK2; 0.3 µM compound, duplicates, listed as CCT250006, 0.3 µM
  HIPK2 % activity: 11%
HIPK2; 1 µM compound, duplicates
  activity at 1 µM: 6%
HIPK2; 1 µM compound, duplicates, listed as CCT250006, 1 µM
  HIPK2 % activity: 5%
HIPK2; 3 µM compound, duplicates, listed as CCT250006, 3 µM
  HIPK2 % activity: 1% and 4%
HIPK2; 10 µM compound, duplicates, listed as CCT250006, 10 µM
  HIPK2 % activity: 1% and 5%
HIPK2; SI Table S5, unit inferred, one per duplicate curve, read-out: HIPK2 IC50, fitted values above the IC50(µM) line
  IC50: 0.0272 µM
TAOK1; 0.0003 µM compound
  activity at 0.0003 µM: 108%
TAOK1; 0.001 µM compound
  activity at 0.001 µM: 95%
TAOK1; 0.003 µM compound
  activity at 0.003 µM: 111%
TAOK1; 0.01 µM compound
  activity at 0.01 µM: 116%
TAOK1; 0.03 µM compound
  activity at 0.03 µM: 109%
TAOK1; 0.1 µM compound
  activity at 0.1 µM: 82%
TAOK1; 0.3 µM compound
  activity at 0.3 µM: 69%
TAOK1; 1 µM compound
  activity at 1 µM: 46%
TAOK1; 3 µM compound
  activity at 3 µM: 20%
TAOK1; 10 µM compound
  activity at 10 µM: 11%
